Laboratory results from patent US8758781B2, “Tissue scaffolds derived from forestomach extracellular matrix” (Mesynthes Ltd., priority 2008, dated 2014).

What was measured:
[1] = test system: PC12 cells; experiment: PC12 cell differentiation by growth factor released from laminates; format: cell-based; conditions: growth factor solution control (50 ng/disc); 48 hours
Protocol: Specifically, a collagen gel was prepared as described in Example 3. Once formed the gel was spiked with either human recombinant FGF2 or NGF. Sterile FM scaffold sheets were cut to 8 mm discs, and growth factor spiked collagen gel (10 μL) was applied to one surface. A second FM scaffold disc was applied to the collagen layer to create a laminate sandwich (i.e., FM scaffold/bioactive collagen polymer/FM scaffold). The bioactive FM scaffold laminates were dehydrated at 25° C. for 2 hours to yield a bonded laminate. The FM laminates were produced with FGF2 or NGF at either 0, 250 or 500 ng/disc. The bioactive FM scaffolds were incubated at 37° C. for 24 hours in DMEM (1 mL) to extract the bound growth factor prior to application to a cell monolayer. PC12 cells were seeded onto 24-well plates at 20 k cells/well in DMEM (1 mL) and incubated for 24 hours at 37° C. Media was removed from the cells and replaced with DMEM (1 mL) that had been incubated with the bioactive FM scaffold laminates. Positive control cells were treated with a solution of either FGF2 or NGF at 50 ng/mL final concentration. Cells were incubated for 48 hours. […] Total cells were counted per frame, as well as the total number of cell processes per frame. […] Growth factor stimulated cell differentiation was expressed as the number of cell processes per cell per frame. Results are expressed as Table 19. […]

[2] = test system: S. aureus; experiment: Anti-microbial zone of inhibition on Mueller-Hinton agar; format: cell-based; parameters: key: ‘+++’ indicates a bioactivity comparable to the positive control; ‘−’ indicates no bioactivity; conditions: positive control, solution on sterile filter paper disc
Protocol: Plates of Mueller-Hinton agar were prepared and streaked with 100 μL of 10^8 S. aureus and left to dry for 5-10 minutes. Using sterile technique, discs were transferred to the plates and the plates incubated for 24 hours at 35° C. After 24 hours, plates were digitally imaged and the anti-microbial zone of inhibition around each of the discs was scored relative to the positive control.

[3] = test system: PI-3: Parainfluenza virus type 3 (Paramyxoviridae); conditions: 0.3% PAA/5% Ethanol in PBS
Protocol: (§1) A study was undertaken to examine viral inactivation during the STOF processes and PAA treatment using three model viruses.
(§2) The level of viral inactivation was tested using a scaled-down manufacturing process. This involved spiking high-titre viral stocks of each of the three model viruses into samples representing two different stages of the manufacturing process, and subjecting these spiked samples to a treatment analogous to the corresponding manufacturing step. The level of virus inactivation during each treatment was determined by comparing the viral titres recovered from the spiked samples after each treatment, with viral recovery from untreated samples.
(§3) The model viruses were chosen to include viruses with different physio-chemical characteristics, such as the presence or absence of envelope, type of nucleic acid genome (DNA or RNA) and survival in the environment/resistance to disinfection (Table 22). The amount of infectious virus present in samples was determined by end-point titration and viral titres were expressed as tissue culture infective dose, 50% (TCID50).

[4] = test system: BEV: Bovine enterovirus (Picornaviridae); experiment: Viral inactivation in scaled-down manufacturing process; conditions: 0.3% PAA/5% Ethanol in PBS
Protocol: as §1, §2, §3

[5] = test system: FHV-1: Felid herpesvirus type 1 (Herpesviridae); experiment: as above; conditions: 0.3% PAA/5% Ethanol in PBS
Protocol: as §1, §2, §3

Q: For rhNGF: NGF solution, positive control, which “Relative cell response (cell processes per cell per frame)” value [1] is on record?
A: Its value is 0.73 ± 0.01.

Q: `C[C@H]1c2cccc(O)c2C(=O)C2=C(O)[C@]3(O)C(=O)C(C(N)=O)=C(O)[C@@H](N(C)C)[C@@H]3[C@@H](O)[C@@H]21` [Doxycycline] was tested. Which Antibacterial score ([2]; 30 μg/disc) did it give?
A: Its Antibacterial score is “+++”.

Q: How did the “Relative cell response (cell processes per cell per frame)” value [1] turn out when “rhFGF2: human recombinant FGF2 solution, positive control” was run?
A: The value was 0.72 ± 0.02.

Q: `CC(=O)OO` [PAA, peracetic acid] was tested. Which “PAA Inactivation” value [3] did it give?
A: Its value is “≧2.3 log TCID50”.

Q: What about the “PAA Inactivation” value [4] of the same compound?
A: The value was 7.3 log TCID50.

Q: And the “PAA Inactivation” value [5]?
A: Its value is “≧2.6 log TCID50”.

Q: For poly-L-lysine, which Antibacterial score ([2]; 5 μg/disc) is on record?
A: Its Antibacterial score is “+++”.
